The nature of the data set: gradient 5% acetonitrile 3 min, to 50% in 2 min, to 85% in 15 min, held 3 min, 100 µL/min. To be noted: column: Zorbax Extend-C18 2.1 x 50 mm; eluents: water / acetonitrile, 0.1% formic acid. In outline:
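Pure standards were analyzed in mixtures of ~100 molecules using HPLC coupled to a quadrupole time-of-flight mass spectrometer, in both positive and negative ionization mode. Separation used a Zorbax Extend-C18 column (2.1 × 50 mm, 1.8 μm) at 100 μL/min, with water and acetonitrile each containing 0.1% formic acid. Dead and dwell volumes were 40 μL and 900 μL, and data were collected over 3 months. Retention time was read from computationally picked adduct peaks, each inspected manually.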
`Cc1sc2ccn(Cc3ccc(F)cc3)c(=O)c2c1C(=O)NCc1ccco1` gave an RP-LC retention time of 912 s. The compound `COc1cc(C)c(Sc2cnc(NC(=O)c3ccc(CNC(C)C(C)(C)C)cc3)s2)cc1C(=O)N1CCN(C(C)=O)CC1` (stereo not drawn) had an RP-LC retention time of 762 s. Compound `CCCCOc1ccc(NC(=O)c2oc3ccc(C)cc3c2C)c2cccnc12` showed an RP-LC retention time of 923 s. In the case of `COc1ccc(-c2nc(-c3ccc4nnn(C(C)C)c4c3)no2)cc1`, the RP-LC retention time was found to be 1140 s.

`C=CCn1ccc2c(OCC(=O)Nc3ccc4c(c3)OCO4)cccc2c1=O` gave an RP-LC retention time of 805 s. Take `COc1ccc(S(=O)(=O)N2CCOC2CNC(=O)C(=O)NCc2ccccn2)cc1C` (stereo not drawn): the RP-LC retention time amounted to 603 s. On to `O=C(C1CCN(Cc2cc3ccccc3n2Cc2ccccc2)CC1)N1CCCCC1`, for which the RP-LC retention time was 757 s. The figure for `O=C(NCc1ccc(Br)cc1)c1cn2nc(Cl)ccc2n1` is 882 s; for `Cc1cccc(-c2cc3n(n2)CCCN(C(=O)C2CCOC2)C3)c1` (stereo not drawn) it is 735 s; for `COc1cccc(-c2nc(C3CCN(S(=O)(=O)c4ccc(C)c(F)c4)CC3)no2)c1` it is 1170 s. As for `O=C(CC1=C2CCCCC2NC1=O)Nc1cccc(F)c1` (stereo not drawn), the RP-LC retention time came to 719 s. With `O=C(Nc1ccc(F)cc1)C1CCCN(c2nc3ccsc3c(=O)n2Cc2ccc(F)cc2)C1` (stereo not drawn), the RP-LC retention time is 996 s.

`COc1ccc(CNC(=O)Nc2c(-c3cccc(C)c3)nc3ccccn23)cc1`: the RP-LC retention time amounted to 651 s. The figure for `CCc1ccc(NC(=O)NCC2CCOCC2)cc1` is 732 s; for `Cc1cc(C)cc(N2CCC(NC(=O)c3cccs3)C2=O)c1` (stereo not drawn) it is 842 s; for `CC1=C(c2ccccc2)S(=O)(=O)N=C1N1CCCN(C(=O)C2CCCO2)CC1` (stereo not drawn) it is 702 s. The figure for `CCOc1ccc(C(O)CN2CCN(c3ccccn3)CC2)cc1Cl` (stereo not drawn) is 591 s. The same measure for `CC(C)n1cc(S(=O)(=O)Nc2ccc(Cl)cc2)c2cccnc21`: 862 s.

`CCn1c(-c2cccc(C(N)=O)c2)nc2cccnc21` registered an RP-LC retention time of 591 s. The same measure for `COc1cc(C(=O)Oc2ccc(/C=C/c3ccccn3)cc2)cc(OC)c1OC`: 689 s; for `O=C(Cc1c(F)cccc1Cl)NC1CCN(c2cc(-c3ccc(F)cc3)[nH]n2)C1` (stereo not drawn): 760 s; for `NS(=O)(=O)c1ccc(NC(=O)c2csc3c2CCCC3)cc1`: 769 s. The same measure for `O=C(NCc1ccco1)C1CCN(c2ncccc2-c2nc(-c3cccc(Cl)c3)no2)CC1`: 1060 s; for `Cc1ccc(CNC(=O)C2(C)CN(S(C)(=O)=O)CC(=O)N2c2ccc(Cl)cc2C)cc1` (stereo not drawn): 919 s.

Take `O=c1c2sccc2n(Cc2nc(-c3ccccc3)no2)c(=O)n1CCc1ccccc1`: the RP-LC retention time amounted to 1130 s. `O=C(NCc1noc(Cc2ccccc2)n1)c1ccccc1` displayed an RP-LC retention time of 798 s. The same measure for `O=C(Cc1ccsc1)NCc1cccnc1Oc1ccccc1`: 704 s; for `CN1c2ccc(F)cc2C(=O)NC12CCN(C(=O)c1ccccc1Cl)CC2`: 751 s.

Consider `CC1CCN(CCCC(=O)c2ccc(F)cc2)CC1`, for which the RP-LC retention time turned out to be 685 s. The figure for `CCOc1ccc(-n2c(CN3CCN(C(=O)NCCCOC)CC3)nc3cccnc32)cc1` is 609 s.

As for `CCc1ccc(NC(=O)Cn2c(=O)cc(-c3nc(C(C)C)no3)c3ccccc32)cc1`, the RP-LC retention time was 1100 s. `Cc1cc(Nc2ccc(NC(=O)c3cnccn3)cc2)nc(N2CCCCC2)n1` had an RP-LC retention time of 588 s. In turn, `CC(C)c1cc(C2CCCN2C(=O)NC(C)(C)C)on1` (stereo not drawn) returned an RP-LC retention time of 835 s.
